Measured values from patent US11807644B2 (PMV Pharmaceuticals, Inc., priority 2020, dated 2023).

The compounds below were run against T1, recombinant His-tag Y220C p53 DBD protein (Homo sapiens, UniProt P04637, Y220C) (assay: In vitro DNA binding activity assay (TR-FRET): binding of His-tag Y220C p53 DBD to biotin-labeled consensus DNA). Conditions: SC150 = concentration to increase DNA binding by […], His-tag Y220C p53 DBD, biotin-labeled consensus DNA.
T1 construct: recombinant His-tag Y220C p53 DBD protein (amino acids #˜94-312)
Format: biochemical

Structure (SMILES)	Y220C SC150 (μM)
CN1CC[C@@H](Nc2cccc3c2cc(-c2noc(CNC(=O)c4ccn(C5CCC(N(C)C)C5)c4)n2)n3CC(F)(F)F)[C@@H](F)C1 (stereo in doubt) [Compound 361B, 1-[(1R,3R)-3-(dimethylamino)cyclopentyl]-N-{[3-(4-{[(3S,4R)-3-fluoro-1-methylpiperidin-4-yl]amino}-1-(2,2,2-trifluoroethyl)-1H-indol-2-yl)-1,2,4-oxadiazol-5-yl]methyl}-1H-pyrrole-3-carboxamide]	* (* = 0 μM ≤ SC150 < 0.1 μM)
CC1(n2ccc(C(=O)NCc3nc(-c4cc5c(N[C@H]6CNCC[C@H]6F)cccc5n4CC(F)(F)F)no3)c2)CCOCC1 [Compound 421B, N-{[3-(4-{[(3S,4R)-4-fluoropiperidin-3-yl]amino}-1-(2,2,2-trifluoroethyl)-1H-indol-2-yl)-1,2,4-oxadiazol-5-yl]methyl}-1-(4-methyloxan-4-yl)-1H-pyrrole-3-carboxamide]	* (* = 0 μM ≤ SC150 < 0.1 μM)
CO[C@H]1CCC[C@@H]1n1ccc(C(=O)NCc2nc(-c3cc4c(N[C@@H]5CCN(C)C[C@@H]5F)cccc4n3CC(F)(F)F)no2)c1 (relative stereo) [Compound 355B]	* (* = 0 μM ≤ SC150 < 0.1 μM)
COc1ccc(C(=O)NCc2nnc(-c3cc4c(N[C@H]5CCN(C)C[C@H]5F)cccc4n3CC(F)(F)F)o2)cc1 (racemic) [Compound 117B, (+/−)-N-{[5-(4-{[(3R,4S)-3-fluoro-1-methylpiperidin-4-yl]amino}-1-(2,2,2-trifluoroethyl)-1H-indol-2-yl)-1,3,4-oxadiazol-2-yl]methyl}-4-methoxybenzamide]	** (** = 0.1 μM ≤ SC150 < 0.5 μM)
CCCC(=O)NCc1nnc(-c2cc3c(NC4CCN(C)CC4)cccc3n2CC(F)(F)F)s1 [Compound 65B, N-[(5-{4-[(1-methylpiperidin-4-yl)amino]-1-(2,2,2-trifluoroethyl)-1H-indol-2-yl}-1,3,4-thiadiazol-2-yl)methyl]butanamide]	** (** = 0.1 μM ≤ SC150 < 0.5 μM)
CN1CC[C@@H](Nc2cccc3c2cc(-c2noc(CNC(=O)c4ccn(C(C)(C)C5CC5)c4)n2)n3CC(F)(F)F)[C@@H](F)C1 [Compound 423B, 1-(2-cyclopropylpropan-2-yl)-N-{[3-(4-{[(3S,4R)-3-fluoro-1-methylpiperidin-4-yl]amino}-1-(2,2,2-trifluoroethyl)-1H-indol-2-yl)-1,2,4-oxadiazol-5-yl]methyl}-1H-pyrrole-3-carboxamide]	* (* = 0 μM ≤ SC150 < 0.1 μM)
COc1cc(S(C)(=O)=O)ccc1NCc1nnc(-c2cc3c(N[C@H]4CCN(C)C[C@@H]4F)cccc3n2CC(F)(F)F)o1 (racemic) [Compound 123B, (+/−)-N-[(3R,4R)-3-fluoro-1-methylpiperidin-4-yl]-2-(5-{[(4-methanesulfonyl-2-methoxyphenyl)amino]methyl}-1,3,4-oxadiazol-2-yl)-1-(2,2,2-trifluoroethyl)-1H-indol-4-amine]	** (** = 0.1 μM ≤ SC150 < 0.5 μM)
CN1CC[C@@H](Nc2cccc3c2cc(-c2noc(CNC(=O)c4ccn([C@H]5CC[C@@](C)(O)C5)c4)n2)n3CC(F)(F)F)[C@@H](F)C1 (stereo in doubt) [Compound 374B, Cis-N-{[3-(4-{[(3S,4R)-3-fluoro-1-methylpiperidin-4-yl]amino}-1-(2,2,2-trifluoroethyl)-1H-indol-2-yl)-1,2,4-oxadiazol-5-yl]methyl}-1-[(1R,3S)-3-hydroxy-3-methylcyclopentyl]-1H-pyrrole-3-carboxamide]	* (* = 0 μM ≤ SC150 < 0.1 μM)
CC(C)n1cc(C(=O)NCc2nc(-c3cc4c(N[C@@H]5CCN(C)C[C@@H]5F)cccc4n3CC(F)(F)F)no2)cn1 [Compound 255B, N-{[3-(4-{[(3S,4R)-3-fluoro-1-methylpiperidin-4-yl]amino}-1-(2,2,2-trifluoroethyl)-1H-indol-2-yl)-1,2,4-oxadiazol-5-yl]methyl}-1-(propan-2-yl)-1H-pyrazole-4-carboxamide]	* (* = 0 μM ≤ SC150 < 0.1 μM)
CN1CC[C@@H](Nc2cccc3c2cc(-c2noc(CNC(=O)c4ccn(CC(=O)O)c4)n2)n3CC(F)(F)F)[C@@H](F)C1 [Compound 238B, 2-[3-({[3-(4-{[(3S,4R)-3-fluoro-1-methylpiperidin-4-yl]amino}-1-(2,2,2-trifluoroethyl)-1H-indol-2-yl)-1,2,4-oxadiazol-5-yl]methyl}carbamoyl)-1H-pyrrol-1-yl]acetic acid]	* (* = 0 μM ≤ SC150 < 0.1 μM)
CN1CC[C@@H](Nc2cccc3c2cc(-c2noc(CNC(=O)c4cnn(C5(C)CCOCC5)c4)n2)n3CC(F)(F)F)[C@@H](F)C1 [Compound 404B, N-{[3-(4-{[(3S,4R)-3-fluoro-1-methylpiperidin-4-yl]amino}-1-(2,2,2-trifluoroethyl)-1H-indol-2-yl)-1,2,4-oxadiazol-5-yl]methyl}-1-(4-methyloxan-4-yl)-1H-pyrazole-4-carboxamide]	* (* = 0 μM ≤ SC150 < 0.1 μM)
COCC1(n2ccc(C(=O)NCc3nc(-c4cc5c(N[C@@H]6CCN(C)C[C@@H]6F)cccc5n4CC(F)(F)F)no3)c2)CC1 [Compound 426B, N-{[3-(4-{[(3S,4R)-3-fluoro-1-methylpiperidin-4-yl]amino}-1-(2,2,2-trifluoroethyl)-1H-indol-2-yl)-1,2,4-oxadiazol-5-yl]methyl}-1-[1-(methoxymethyl)cyclopropyl]-1H-pyrrole-3-carboxamide]	* (* = 0 μM ≤ SC150 < 0.1 μM)
CCOC1CCCC1n1cc(C(=O)NCc2nc(-c3cc4c(N[C@@H]5CCN(C)C[C@@H]5F)cccc4n3CC(F)(F)F)no2)cn1 (stereo in doubt) [Compound 375B, 1-[(1R,2R)-2-ethoxycyclopentyl]-N-{[3-(4-{[(3S,4R)-3-fluoro-1-methylpiperidin-4-yl]amino}-1-(2,2,2-trifluoroethyl)-1H-indol-2-yl)-1,2,4-oxadiazol-5-yl]methyl}-1H-pyrazole-4-carboxamide]	* (* = 0 μM ≤ SC150 < 0.1 μM)
Cn1cc(C(=O)NCc2nc(-c3cc4c(N[C@@H]5CCN(C(C)(C)C)C[C@H]5F)cccc4n3CC(F)(F)F)no2)cn1 (racemic) [Compound 407B, N-{[3-(4-{[(3R,4R)-1-tert-butyl-3-fluoropiperidin-4-yl]amino}-1-(2,2,2-trifluoroethyl)-1H-indol-2-yl)-1,2,4-oxadiazol-5-yl]methyl}-1-methyl-1H-pyrazole-4-carboxamide]	* (* = 0 μM ≤ SC150 < 0.1 μM)
COCC(C)n1ccc(C(=O)NCc2nc(-c3cc4c(N[C@@H]5CCN(C(C)(C)C)C[C@H]5F)cccc4n3CC(F)(F)F)no2)c1 (mixture of isomers) [Compound 358B, rac-N-{[3-(4-{1[(3R,4R)-1-tert-butyl-3-fluoropiperidin-4-yl]amino}-1-(2,2,2-trifluoroethyl)-1H-indol-2-yl)-1,2,4-oxadiazol-5-yl]methyl}-1-(1-methoxypropan-2-yl)-1H-pyrrole-3-carboxamide]	* (* = 0 μM ≤ SC150 < 0.1 μM)
COC(C)(C)c1cc(C(=O)NCc2nc(-c3cc4c(N[C@@H]5CCN(C)C[C@@H]5F)cccc4n3CC(F)(F)F)no2)cs1 [Compound 447B, N-{[3-(4-{[(3S,4R)-3-fluoro-1-methylpiperidin-4-yl]amino}-1-(2,2,2-trifluoroethyl)-1H-indol-2-yl)-1,2,4-oxadiazol-5-yl]methyl}-5-(2-methoxypropan-2-yl)thiophene-3-carboxamide]	* (* = 0 μM ≤ SC150 < 0.1 μM)
CN1CCC(Nc2cccc3c2cc(-c2noc(CNC(=O)C4CC4)n2)n3CC(F)(F)F)C1 (racemic) [Compound 169B, (+/−)-N-[(3-{4-[(1-methylpyrrolidin-3-yl)amino]-1-(2,2,2-trifluoroethyl)-1H-indol-2-yl}-1,2,4-oxadiazol-5-yl)methyl]cyclopropanecarboxamide]	* (* = 0 μM ≤ SC150 < 0.1 μM)
Cc1cc(C(=O)NCc2nc(-c3cc4c(N[C@@H]5CCN(C)C[C@@H]5F)cccc4n3CC(F)(F)F)no2)cn1C [Compound 219B, N-{[3-(4-{[(3S,4R)-3-fluoro-1-methylpiperidin-4-yl]amino}-1-(2,2,2-trifluoroethyl)-1H-indol-2-yl)-1,2,4-oxadiazol-5-yl]methyl}-1,5-dimethyl-1H-pyrrole-3-carboxamide]	* (* = 0 μM ≤ SC150 < 0.1 μM)
CC(C)(C)n1ccc(C(=O)NCc2nc(-c3cc4c(NC5CCC(F)(F)CC5)cccc4n3CC(F)(F)F)no2)c1 [Compound 328B, 1-tert-butyl-N-[(3-{4-[(4,4-difluorocyclohexyl)amino]-1-(2,2,2-trifluoroethyl)-1H-indol-2-yl}-1,2,4-oxadiazol-5-yl)methyl]-1H-pyrrole-3-carboxamide]	* (* = 0 μM ≤ SC150 < 0.1 μM)

Same assay, conditions: concentration to increase DNA binding by […], incubated at either 27° C. or 29° C. for 60 min

Structure (SMILES)	SC150 (μM)
O=C(NCc1ccc(-c2cc3c(NC4CCS(=O)(=O)CC4)cccc3n2CC(F)(F)F)cc1)c1ccc(Cl)cc1 [Compound 17A, 4-chloro-N-[(4-{4-[(1,1-dioxo-1λ^6-thian-4-yl)amino]-1-(2,2,2-trifluoroethyl)-1H-indol-2-yl}phenyl)methyl]benzamide]	++ (++ = 2 μM ≤ SC150 < 5 μM)
CC(C)(C)OC(=O)NCc1ccc(-c2cc3c(NC4CCS(=O)(=O)CC4)cccc3n2CC(F)(F)F)cc1 [Compound 6A, tert-butyl N-[(4-{4-[(1,1-dioxo-1λ^6-thian-4-yl)amino]-1-(2,2,2-trifluoroethyl)-1H-indol-2-yl}phenyl)methyl]carbamate]	++ (++ = 2 μM ≤ SC150 < 5 μM)
COCC(O)CN1CCC(Nc2cccc3c2cc(-c2cccc(NC(C)=O)c2)n3CC(F)(F)F)CC1 (centres unmarked) [Compound 51A, N-[3-(4-{[1-(2-hydroxy-3-methoxypropyl)piperidin-4-yl]amino}-1-(2,2,2-trifluoroethyl)-1H-indol-2-yl)phenyl]acetamide]	++++ (++++ = 10 μM ≤ SC150 < 35 μM)
COc1ccc(NCc2ccc(-c3cc4c(NC5CCN(C6CCOCC6)CC5)cccc4n3CC(F)(F)F)cc2)cc1 [Compound 33A, 2-(4-{[(4-methoxyphenyl)amino]methyl}phenyl)-N-[1-(oxan-4-yl)piperidin-4-yl]-1-(2,2,2-trifluoroethyl)-1H-indol-4-amine]	++ (++ = 2 μM ≤ SC150 < 5 μM)
